Earlier results in US20190210972A1, “METHODS OF RESOLVING RACEMIC MIXTURE TO OBTAIN (-)-HUPERZINE A” (AMPHASTAR NANJING PHARMACEUTICALS INC., priority 2014, published 2019).

Tested on: patients with Alzheimer's disease
Settings: double-blind, placebo-controlled

C/C=C1\C2C=C(C)C[C@]1(N)c1ccc(=O)[nH]c1C2 (single isomer, unassigned; (-)) [(−)-Huperzine A]
cognitive function and quality of life of trial participants: Significant improvements
